Experimental data: patent US20180168208A1 (priority 2014, published 2018)
Like-named read-outs stand apart in the source and are kept apart here.

Key:
T1R1/T1R3 receptor [1] = target: T1, T1R1/T1R3 receptor (Felis catus, UniProt E3UMS2); experiment: Example 8: agonist screening of transmembrane compounds on T1R1/T1R3 in HEK293 cells; format: cell-based, cat; settings: for agonist profile assessment (agonist activity): transmembrane compound alone; for T1R1/T1R3 agonist: transmembrane compound tested at 0.01, 0.1 and 1 mM, HEK293 cells expressing T1R1/T1R3, intracellular calcium
Method: (§1) HEK293 cells that stably express T1R3 and inducibly express T1R1 were exposed to a transmembrane compound. Activation of the T1R1/T1R3 receptor was detected by a change in intracellular calcium levels using a calcium sensitive fluorescent dye and/or a luminescent reporter system. […] A FLIPR® Tetra or a FlexStation® 3 was used for data capture.
Each transmembrane compound was tested at concentrations of 0.01 mM, 0.1 mM, and 1 mM. […] To generate the dose response curves, the transmembrane compound was tested at concentrations of between 0.0001 mM and 1.0 mM in the presence of GMP and Ala.

T1R1/T1R3 receptor [2] = target: T1, T1R1/T1R3 receptor; experiment: Example 8: PAM screening of transmembrane compounds with GMP and Ala on T1R1/T1R3 in HEK293 cells; format: cell-based, cat; settings: for PAM profile assessment (PAM activity): in the presence of GMP and Alanine; for T1R1/T1R3 PAM: compound at 0.01, 0.1 and 1 mM in combination with GMP+Ala mixtures (T1-T4), PAM if response greater than sum of compound alone and GMP+Ala alone
Source text: as §1, with “to” for “to a”, “compound alone or in combination with Ala and GMP to activate the umami receptor.” for “compound.”
Dose response curves were generated for each transmembrane compound at concentrations of 0 (buffer only), 0.01, 0.1 and 1 mM, wherein each of the three concentrations of transmembrane compound was tested in combination with 0.03 mM GMP+100 mM Ala (T1); 0.6 mM GMP+10 mM Ala (T2); 0.1 mM GMP+60 mM Ala (T3) and 0.3 mM GMP+60 mM Ala (T4). The T4 mixture was also tested in a 2-fold dilution series (the T4(×) Concentration). In these experiments, the first test concentration was 2× (2 times) the T4 concentration. The subsequent test concentrations were 2-fold dilutions from that (1×, 0.5×etc.). This dilution series was tested with or without the addition of the test compound at a constant 0.3 mM concentration.
Activation of the umami receptor was also determined in the presence of 1 mM GMP+100 mM Ala to generate a “maximum” umami receptor activation level.

T1R1/T1R3 receptor [3] = target: T1, T1R1/T1R3 receptor; experiment: cell-based
Source text: (§2) HEK293 cells that stably express T1R3 and inducibly express T1R1 were exposed to nucleotide derivatives alone to activate the umami receptor. Activation of the T1R1/T1R3 receptor was detected by a change in intracellular calcium levels using a calcium sensitive fluorescent dye. Cells that express T1R3 but not T1R1 were used as a control. A FLIPR® Tetra or a FlexStation® 3 was used for data capture.
as §2, with “alone or in combination with one or more amino acids and/or one or more nucleotides” for “alone”, “dye and/or a luminescent reporter system.” for “dye.”
as §2, with “transmembrane compounds” for “nucleotide derivatives”, “alone or in combination with one or more amino acids and/or one or more nucleotides” for “alone”
In each experiment, serial dilutions of up to 10 mM of the transmembrane compound were added to the T1R1/T1R3-expressing cells.

SMILES	T1R1/T1R3 agonist (T1R1/T1R3 receptor [1])	T1R1/T1R3 PAM (T1R1/T1R3 receptor [2])	further results
COC(=O)C(NCc1ccccc1)c1ccccc1 (stereo not shown) [Methyl-2-benzylamino-2-phenylacetate]	–	–	agonist profile assessment (agonist activity) (T1R1/T1R3 receptor [1]): agonist; PAM profile assessment (PAM activity) (T1R1/T1R3 receptor [2]): PAM activity
COC(=O)[C@@H](Cc1ccccc1)NCc1ccccc1.Cl [N-Benzyl-D-Phenylalanine methyl ester hydrochloride]	–	–	agonist profile assessment (agonist activity) (T1R1/T1R3 receptor [1]): agonist; PAM profile assessment (PAM activity) (T1R1/T1R3 receptor [2]): PAM activity
O=C(CN1C(=O)C(=O)N(CCc2cccs2)C1=O)c1ccc2c(c1)OCO2 [Formula 7, 1-(2-(benzo[d][1,3]dioxol-5-yl)-2-oxoethyl)-3-(2-(thiophen-2-yl)ethyl)imidazolidine-2,4,5-trione]	No	No	–
O=C1CC(=O)N(Cc2ccccc2)C(=O)N1Cc1ccccc1 [1,3-dibenzylpyrimidine-2,4,6(1H,3H,5H)-trione]	–	–	agonist profile assessment (agonist activity) (T1R1/T1R3 receptor [1]): agonist activity; Max resp % of IMP, +Alanine (20 mM) (T1R1/T1R3 receptor [3]): 42.7%; Thres (mM), +Alanine (20 mM) (T1R1/T1R3 receptor [3]): 0.1 mM; EC50 (T1R1/T1R3 receptor [3]; EC50 (mM), +Alanine (20 mM)): 0.31 mM; EC50 (T1R1/T1R3 receptor [3]; EC50 (mM), +Alanine (20 mM) + IMP (0.2 mM)): > 0.3 mM; EC50 (T1R1/T1R3 receptor [3]; EC50 (mM), +IMP (0.2 mM), in the presence of 0.2 mM IMP): 0.52 mM; EC50 (T1R1/T1R3 receptor [3]; T1R1/T1R3 EC50 +0.2 mM IMP, +0.2 mM IMP): 0.52 ± 0.19 mM; EC50 (T1R1/T1R3 receptor [3]; T1R1/T1R3 EC50 +20 mM L-alanine): 0.31 ± 0.05 mM; EC50 (T1R1/T1R3 receptor [3]; T1R1/T1R3 EC50 +20 mM L-alanine + 0.2 mM IMP): > 0.3 mM; EC50 (T1R1/T1R3 receptor [3]; alone in buffer, read-out: T1R1/T1R3 EC50 alone in buffer): 0.26 ± 0.01 mM; EC50 (T1R1/T1R3 receptor [3]; compound alone in buffer, read-out: EC50 (mM), +buffer (alone)): 0.26 mM; Max resp % of Ala, +IMP (0.2 mM) (T1R1/T1R3 receptor [3]; in the presence of 0.2 mM IMP, relative to alanine): 35.7%; Thres (mM), +IMP (0.2 mM) (T1R1/T1R3 receptor [3]; threshold concentration in the presence of 0.2 mM IMP): 0.1 mM
Cl.N[C@@H](Cc1ccccc1)C(=O)OCc1ccccc1 [Formula 20, L-Phenylalanine benzyl ester hydrochloride]	Yes	Yes	–
COC(=O)[C@@H](Cc1ccccc1)NCc1ccccc1.Cl [Formula 16, N-Benzyl-D-Phenylalanine methyl ester hydrochloride]	Yes	Yes	–
O=C(CN1C(=O)C(=O)N(Cc2ccccc2)C1=O)c1ccc(Br)cc1 [Formula 3, 1-benzyl-3-(2-(4-bromophenyl)-2-oxoethyl)imidazolidine-2,4,5-trione]	No	No	–
N[C@@H](Cc1ccc(O)cc1)C(=O)OCc1ccccc1 [Formula 21, L-Tyrosine benzyl ester]	No	No	–
Cc1ccc(CNC(Cc2ccccc2)C(=O)O)cc1 (stereo not shown) [Formula 23, 2-((4-methylbenzyl)amino)-3-phenylpropanoic acid]	No	No	–
O=C(CN1C(=O)C(=O)N(Cc2ccccc2)C1=O)c1ccccc1 [Formula 1, 1-benzyl-3-(2-oxo-2-phenylethyl)imidazolidine-2,4,5-trione]	No	No	–
CCCC(CCC)NC(=O)c1ccc2c(c1)OCO2 [Formula 14, N-(heptan-4-yl)benzo[d][1,3]dioxole-5-carboxamide]	Yes	Yes	–
COC(=O)[C@H](Cc1ccccc1)NCc1ccccc1.Cl [Formula 15, N-Benzyl-L-phenylalanine methyl ester hydrochloride]	Yes	Yes	–
N#Cc1cccc(NC(=O)CN2C(=O)C(=O)N(Cc3ccccc3)C2=O)c1 [Formula 9, 2-(3-benzyl-2,4,5-trioxoimidazolidin-1-yl)-N-(3-cyanophenyl)acetamide]	No	No	–
O=C(O)[C@H](Cc1ccc(O)cc1)NCc1ccccc1 [Formula 22, N-Benzyl-L-Tyrosine]	No	No	–
O=C1C(=O)N(Cc2ccccc2)C(=S)N1Cc1ccccc1 [Formula 13, 1,3-dibenzyl-2-thioxoimidazolidine-4,5-dione]	No	No	–
Cl.N[C@@H](Cc1ccccc1)C(=O)OCc1ccccc1 [L-Phenylalanine benzyl ester hydrochloride]	–	–	agonist profile assessment (agonist activity) (T1R1/T1R3 receptor [1]): agonist; PAM profile assessment (PAM activity) (T1R1/T1R3 receptor [2]): PAM activity
O=C(CN1C(=O)C(=O)N(CCc2cccs2)C1=O)c1cccc2ccccc12 [Formula 11, 1-(2-(naphthalen-1-yl)-2-oxoethyl)-3-(2-(thiophen-2-yl)ethyl)imidazolidine-2,4,5-trione]	No	No	–
O=C1CC(=O)N(Cc2ccccc2)C(=O)N1Cc1ccccc1 [Formula 24, 1,3-dibenzylpyrimidine-2,4,6(1H,3H,5H)-trione]	Yes	No	–
O=C(CN1C(=O)C(=O)N(Cc2ccccc2)C1=O)c1ccc2c(c1)OCCO2 [Formula 4, 1-benzyl-3-(2-(2,3-dihydrobenzo[b][1,4]dioxin-6-yl)-2-oxoethyl)imidazolidine-2,4,5-trione]	No	No	–
O=C(CN1C(=O)C(=O)N(CCc2cccs2)C1=O)c1ccccc1 [Formula 6, 1-(2-oxo-2-phenylethyl)-3-(2-(thiophen-2-yl)ethyl)imidazolidine-2,4,5-trione]	No	No	–
COc1ccccc1C(=O)CN1C(=O)C(=O)N(Cc2cccs2)C1=O [Formula 10, 1-(2-(2-methoxyphenyl)-2-oxoethyl)-3-(thiophen-2-ylmethyl)imidazolidine-2,4,5-trione]	No	No	–
COC(=O)[C@H](CC(C)C)NCc1ccccc1.Cl [Formula 18, Benzyl-L-leucine methyl ester hydrochloride]	Yes	Yes	–
COc1ccc(C(=O)CN2C(=O)C(=O)N(Cc3ccccc3)C2=O)c(OC)c1 [Formula 5, 1-benzyl-3-(2-(2,4-dimethoxyphenyl)-2-oxoethyl)imidazolidine-2,4,5-trione]	No	No	–
O=C(CN1C(=O)C(=O)N(Cc2ccccc2)C1=O)c1ccc2c(c1)OCCCO2 [1-benzyl-3-(2-(3,4-dihydro-2H-benzo[b][1,4]dioxepin-7-yl)-2-oxoethyl)imidazolidine-2,4,5-trione]	–	–	PAM profile assessment (PAM activity) (T1R1/T1R3 receptor [2]): PAM activity
COC(=O)C(NCc1ccccc1)c1ccccc1 (stereo not shown) [Formula 19, Methyl-2-benzylamino-2-phenylacetate]	Yes	Yes	–
COC(=O)[C@H](CC(C)C)NCc1ccccc1.Cl [Benzyl-L-leucine methyl ester hydrochloride]	–	–	agonist profile assessment (agonist activity) (T1R1/T1R3 receptor [1]): agonist; PAM profile assessment (PAM activity) (T1R1/T1R3 receptor [2]): PAM activity
O=C(CN1C(=O)C(=O)N(Cc2ccccc2)C1=O)c1ccc2c(c1)CCC2 [Formula 2, 1-benzyl-3-(2-(2,3-dihydro-1H-inden-5-yl)-2-oxoethyl)imidazolidine-2,4,5-trione]	No	No	–
O=C(CN1C(=O)C(=O)N(Cc2ccccc2)C1=O)c1ccc(Cl)s1 [Formula 12, 1-benzyl-3-(2-(5-chlorothiophen-2-yl)-2-oxoethyl)imidazolidine-2,4,5-trione]	No	Weak PAM	–
O=C(CN1C(=O)C(=O)N(Cc2ccccc2)C1=O)c1ccc(Cl)s1 [1-benzyl-3-(2-(5-chlorothiophen-2-yl)-2-oxoethyl)imidazolidine-2,4,5-trione]	–	–	PAM profile assessment (PAM activity) (T1R1/T1R3 receptor [2]): PAM activity
